Where a name gives a salt, the structure may show the parent alone.
melting point [°C]	SMILES
123 to 125	CCC(=O)N1CC2CC(C1)N2C/C=C(\C)c1ccccc1 (as salt: hydrochloride)
160 to 163	CCC(=O)N1CC2CC(C1)N2C/C=C(\CC)c1ccccc1 (as salt: hydrochloride)
